Measured values from ChEMBL document CHEMBL5223082, “Alkyl-Aryl-Vancomycins: Multimodal Glycopeptides with Weak Dependence on the Bacterial Metabolic State” (J Med Chem, 2021).
In brackets after ≈: the same amount, converted by molar mass.

Experiments:
[1] = Induction of hemolysis in human erythrocytes incubated for 1 hr by microtiter plater reader analysis; type: toxicity, cell-based, Erythrocyte
[2] = system: Enterococcus; test: Antibacterial activity against Vancomycin-resistant Enterococci NR30903 assessed as inhibition of bacterial growth incubated for 18 to 24 hrs by CLSI microbroth dilution method; type: functional; details: time 18-24 hrs
[3] = system: Staphylococcus aureus; test: Antibacterial activity against Vancomycin-resistant Staphylococcus aureus 1 assessed as inhibition of bacterial growth incubated for 18 to 24 hrs by CLSI microbroth dilution method; type: functional; details: time 18-24 hrs
[4] = system: Enterococcus; test: Antibacterial activity against Vancomycin-resistant Enterococci ATCC 51575 assessed as inhibition of bacterial growth incubated for 18 to 24 hrs by CLSI microbroth dilution method; type: functional; details: time 18-24 hrs
[5] = system: Enterococcus; test: Antibacterial activity against Vancomycin-resistant Enterococci ATCC 51559 assessed as inhibition of bacterial growth incubated for 18 to 24 hrs by CLSI microbroth dilution method; type: functional; details: time 18-24 hrs
[6] = system: Staphylococcus aureus; test: Antibacterial activity against Vancomycin-resistant Staphylococcus aureus 4 assessed as inhibition of bacterial growth incubated for 18 to 24 hrs by CLSI microbroth dilution method; type: functional; details: time 18-24 hrs
[7] = system: Enterococcus; test: Antibacterial activity against Vancomycin-resistant Enterococci NR30909 assessed as inhibition of bacterial growth incubated for 18 to 24 hrs by CLSI microbroth dilution method; type: functional; details: time 18-24 hrs
[8] = Induction of hemolysis in human erythrocytes at 250 uM incubated for 1 hr by microtiter plater reader analysis; type: toxicity, cell-based, Erythrocyte; details: read-out: Activity
[9] = system: Staphylococcus aureus; test: Antibacterial activity against Methicillin-resistant Staphylococcus aureus ATCC 33591 assessed as inhibition of bacterial growth incubated for 18 to 24 hrs by CLSI microbroth dilution method; type: functional; details: time 18-24 hrs
[10] = system: Staphylococcus aureus; test: Antibacterial activity against Vancomycin-resistant Staphylococcus aureus 12 assessed as inhibition of bacterial growth incubated for 18 to 24 hrs by CLSI microbroth dilution method; type: functional; details: time 18-24 hrs
[11] = system: Enterococcus; test: Potency index, ratio of Vancomycin MIC to test compound MIC for antibacterial activity against Vancomycin-resistant Enterococci ATCC 51575; type: functional
[12] = system: Staphylococcus aureus; test: Potency index, ratio of Vancomycin MIC to test compound MIC for antibacterial activity against Methicillin-resistant Staphylococcus aureus ATCC 33591; type: functional
[13] = system: Staphylococcus aureus; test: Potency index, ratio of Vancomycin MIC to test compound MIC for antibacterial activity against Vancomycin-resistant Staphylococcus aureus 1; type: functional
[14] = system: Staphylococcus aureus; test: Potency index, ratio of Vancomycin MIC to test compound MIC for antibacterial activity against Vancomycin-resistant Staphylococcus aureus 12; type: functional
[15] = system: Enterococcus; test: Potency index, ratio of Vancomycin MIC to test compound MIC for antibacterial activity against Vancomycin-resistant Enterococci NR30903; type: functional, NR 30903
[16] = system: Staphylococcus aureus; test: Potency index, ratio of Vancomycin MIC to test compound MIC for antibacterial activity against Vancomycin-resistant Staphylococcus aureus 4; type: functional
[17] = system: Enterococcus; test: Potency index, ratio of Vancomycin MIC to test compound MIC for antibacterial activity against Vancomycin-resistant Enterococci NR30909; type: functional, NR 30909
[18] = system: Enterococcus; test: Potency index, ratio of Vancomycin MIC to test compound MIC for antibacterial activity against Vancomycin-resistant Enterococci ATCC 51559; type: functional

| SMILES | HC50 at 1 h [1] [µM] | MIC [2] [µM] | MIC [3] [µM] | MIC [4] [µM] | MIC [5] [µM] | MIC [6] [µM] | MIC [7] [µM] | hemolysis at 1 h, 250 µM [8] [%] | MIC [9] [µM] | MIC [10] [µM] | Ratio [11] | Ratio [12] | Ratio [13] | Ratio [14] | Ratio [15] | Ratio [16] | Ratio [17] | Ratio [18] |
| --- | --- | --- | --- | --- | --- | --- | --- | --- | --- | --- | --- | --- | --- | --- | --- | --- | --- | --- |
| CN[C@H](CC(C)C)C(=O)N[C@H]1C(=O)N[C@@H](CC(N)=O)C(=O)N[C@H]2C(=O)N[C@H]3C(=O)N[C@H](C(=O)N[C@H](C(=O)O)c4cc(O)cc(O)c4-c4cc3ccc4O)[C@H](O)c3ccc(c(Cl)c3)Oc3cc2cc(c3O[C@@H]2O[C@H](CO)[C@@H](O)[C@H](O)[C@H]2O[C@H]2C[C@](C)(NCc3ccc(C(=O)NCCC[N+](C)(C)Cc4ccccc4)cc3)[C@H](O)[C@H](C)O2)Oc2ccc(cc2Cl)[C@H]1O | > 250 | > 30 | 30.5 | > 30 | > 30 | 30.5 | > 30 | 0 | 0.9 | 30.5 | – | – | – | – | – | – | – | – |
| CCCCCCCCNC(=O)c1ccc(CN[C@@]2(C)C[C@H](O[C@H]3[C@H](Oc4c5cc6cc4Oc4ccc(cc4Cl)[C@@H](O)[C@@H](NC(=O)[C@@H](CC(C)C)NC)C(=O)N[C@@H](CC(N)=O)C(=O)N[C@H]6C(=O)N[C@H]4C(=O)N[C@H](C(=O)N[C@H](C(=O)O)c6cc(O)cc(O)c6-c6cc4ccc6O)[C@H](O)c4ccc(c(Cl)c4)O5)O[C@H](CO)[C@@H](O)[C@@H]3O)O[C@@H](C)[C@H]2O)cc1 | > 250 | 4.2 (≈ 7.12 µg/mL) | 4.2 (≈ 7.12 µg/mL) | 1 (≈ 1.69 µg/mL) | 8.3 (≈ 14.1 µg/mL) | 2.1 (≈ 3.56 µg/mL) | 2.1 (≈ 3.56 µg/mL) | – | 1 (≈ 1.69 µg/mL) | 0.3 (≈ 0.508 µg/mL) | 166 | 2 | 166 | 166 | 166 | 166 | 166 | 166 |
| CCCCCCNC(=O)C[N+](C)(C)CCCNC(=O)c1ccc(CN[C@@]2(C)C[C@H](O[C@H]3[C@H](Oc4c5cc6cc4Oc4ccc(cc4Cl)[C@@H](O)[C@@H](NC(=O)[C@@H](CC(C)C)NC)C(=O)N[C@@H](CC(N)=O)C(=O)N[C@H]6C(=O)N[C@H]4C(=O)N[C@H](C(=O)N[C@H](C(=O)O)c6cc(O)cc(O)c6-c6cc4ccc6O)[C@H](O)c4ccc(c(Cl)c4)O5)O[C@H](CO)[C@@H](O)[C@@H]3O)O[C@@H](C)[C@H]2O)cc1 | > 250 | 7.4 | 14.9 | > 30 | > 30 | 29.8 | 14.9 | 1 | 0.4 | 7.4 | 10 | 2 | 10 | 10 | 10 | 10 | 10 | 10 |
| CN[C@H](CC(C)C)C(=O)N[C@H]1C(=O)N[C@@H](CC(N)=O)C(=O)N[C@H]2C(=O)N[C@H]3C(=O)N[C@H](C(=O)N[C@H](C(=O)O)c4cc(O)cc(O)c4-c4cc3ccc4O)[C@H](O)c3ccc(c(Cl)c3)Oc3cc2cc(c3O[C@@H]2O[C@H](CO)[C@@H](O)[C@H](O)[C@H]2O[C@H]2C[C@](C)(NCc3ccc(C(=O)NCCC[N+](C)(C)Cc4ccc(-c5ccccc5)cc4)cc3)[C@H](O)[C@H](C)O2)Oc2ccc(cc2Cl)[C@H]1O | > 250 | 7.3 | 7.3 | 14.7 | 14.7 | 7.3 | 3.7 | 0 | 0.5 | 3.7 | 47 | – | 47 | 47 | 47 | 47 | 47 | 47 |
| CCCCCCCCCCCCCCNC(=O)C[N+](C)(C)CCCNC(=O)c1ccc(CN[C@@]2(C)C[C@H](O[C@H]3[C@H](Oc4c5cc6cc4Oc4ccc(cc4Cl)[C@@H](O)[C@@H](NC(=O)[C@@H](CC(C)C)NC)C(=O)N[C@@H](CC(N)=O)C(=O)N[C@H]6C(=O)N[C@H]4C(=O)N[C@H](C(=O)N[C@H](C(=O)O)c6cc(O)cc(O)c6-c6cc4ccc6O)[C@H](O)c4ccc(c(Cl)c4)O5)O[C@H](CO)[C@@H](O)[C@@H]3O)O[C@@H](C)[C@H]2O)cc1 | 35 | 0.9 | 1.8 | 1.8 | 1.8 | 1.8 | 0.9 | – | 1.8 | 1.8 | 780 | – | 780 | 780 | 780 | 780 | 780 | 780 |
| CCCCCCCCNC(=O)C[N+](C)(C)CCCNC(=O)c1ccc(CN[C@@]2(C)C[C@H](O[C@H]3[C@H](Oc4c5cc6cc4Oc4ccc(cc4Cl)[C@@H](O)[C@@H](NC(=O)[C@@H](CC(C)C)NC)C(=O)N[C@@H](CC(N)=O)C(=O)N[C@H]6C(=O)N[C@H]4C(=O)N[C@H](C(=O)N[C@H](C(=O)O)c6cc(O)cc(O)c6-c6cc4ccc6O)[C@H](O)c4ccc(c(Cl)c4)O5)O[C@H](CO)[C@@H](O)[C@@H]3O)O[C@@H](C)[C@H]2O)cc1 | > 250 | 0.9 | 1.8 | 14.7 | 14.7 | 3.7 | 0.9 | 1 | 0.4 | 3.7 | 750 | – | 750 | 750 | 750 | 750 | 750 | 750 |
| CN[C@H](CC(C)C)C(=O)N[C@H]1C(=O)N[C@@H](CC(N)=O)C(=O)N[C@H]2C(=O)N[C@H]3C(=O)N[C@H](C(=O)N[C@H](C(=O)O)c4cc(O)cc(O)c4-c4cc3ccc4O)[C@H](O)c3ccc(c(Cl)c3)Oc3cc2cc(c3O[C@@H]2O[C@H](CO)[C@@H](O)[C@H](O)[C@H]2O[C@H]2C[C@](C)(NCc3ccc(C(=O)NCCC[N+](C)(C)Cc4cccc5ccccc45)cc3)[C@H](O)[C@H](C)O2)Oc2ccc(cc2Cl)[C@H]1O | > 250 | 14.9 | 29.8 | > 30 | > 30 | 14.9 | 7.4 | 0 | 0.9 | 3.7 | – | – | – | – | – | – | – | – |
